Each structure is given as a SMILES string.

What is called inhibition is the relative decrease from the control value, in per cent.

For assay [1], the target named is T1, CCL17 (Homo sapiens, UniProt Q92583).
T1 construct: codes for the mature CCL17 or CCL22 with an N-terminal thioredoxin-hexahistidin (TRX- (His)6) tag; thioredoxin (TRX) (N, cleaved yes); (His)6 (N, cleaved yes); made in house; host or cells: E. coli BL21 (DE3)
T1 sequence (Q92583 24-94): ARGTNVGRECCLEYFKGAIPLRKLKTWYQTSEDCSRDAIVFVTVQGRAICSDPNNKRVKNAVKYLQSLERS
The assay can be described thus: Scratch wound assay, CCL17-mediated HaCat cell migration. It counts as cell-based. The conditions noted are these: HaCat cells, 72 h, read-out: inhibition of CCL17-mediated wound closure. On the procedure: soluble formazan dye which can be detected by absorbance at 420-480nm. HUT78 T cells (or HaCat cells) were seeded on 24-well plates (200,000 cells per well) and were incubated […]
concentration ≤1% on cells). The background control was reserved as one well containing the culture medium only. The plates were incubated for 72h at 37°C. Three days later, the medium containing the neutraligands was removed, and WST-1 reagent (1:10 final dilution) (Ozyme) was added to each well for a 2h incubation at 37°C as the manufacturer’s recommendation. The plates were shaken and absorbance was measured at 450nm (reference wavelength 690nm) against the background control, using a multiwell plate reader (EnVision, Perkin Elmer). Assays were performed as three independent replicates.
In vitro cell migration assay (scratch wound test) […]
the wound closure was determined as the difference between wound width at times 0 and 72h. […]
doses). After 24h, cytotoxicity was evaluated in the wells using the Alamar Blue method. […]
before AA treatment. The activity of COX2 was determined by measuring PGE2 (Cayman) in the supernatants by EIA. […]

In assay [2] the target is T2, CCL22 (Homo sapiens, UniProt O00626).
T2 construct: codes for the mature CCL17 or CCL22 with an N-terminal thioredoxin-hexahistidin (TRX- (His)6) tag; thioredoxin (TRX) (N, cleaved yes); (His)6 (N, cleaved yes); made in house; host or cells: E. coli BL21 (DE3)
T2 sequence (O00626 25-93): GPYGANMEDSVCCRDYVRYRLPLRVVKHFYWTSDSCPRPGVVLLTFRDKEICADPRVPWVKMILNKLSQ
The assay can be described thus: CCL22-induced EGFP-CCR4 receptor internalization (flow cytometry). It counts as cell-based. The conditions noted are these: 100 nM CCL22, 30 min, 0.03–3 μM compound; read-out: half-maximal efficiency, reduction of CCL22-induced CCR4 internalization. Here is the method: Figure 6 (a) Selectivity of CCL17 and CCL22 neutraligands towards 10 chemokines according to the “neutraligand protocol”. […] Each column represents the mean (block) ± SD (bars) of n = 3 experiments performed in triplicate. *p < 0.05; **p < 0.01; ***p < 0.005 as compared to chemokine + DMSO. (b) Chemokine neutraligands inhibited CCR4 endocytosis induced by CCL22 or CCL17. EGFP-CCR4^+ HEK cells were incubated for 30 min with DMSO or chemokine (100 nM CCL22 or CCL17) in the presence or absence of test compounds. […] Cell surface EGFP-tagged CCR4 receptors were measured by EGFP antibody labeling and flow cytometry analysis. CCR4 internalization was expressed as a percentage of total receptor surface expression calculated using control cells incubated with DMSO (100%). Each column represents the mean (block) ± SD (bars) of n = 3 experiments performed in triplicate. *p < 0.05; **p < 0.01; ***p < 0.005 as compared to chemokine alone. (c,d) Inhibition of CCL17 and CCL22- induced CCR4^+HUT78 T cell chemotaxis by neutraligands. […] The number of migrating cells in the presence of chemokine and compounds were expressed as the corresponding percentages. Results were analyzed by fitting the experimental curves (% of migrating cells vs log compound concentration) using the Kaleidagraph software program, and the corresponding IC50 values were calculated. […]
A general note: Flow cytometry measures light scatter and fluorescence of single cells or particles in a stream.

Regarding `CC(C)=CCn1cnc2c1c(=O)n(C)c(=O)n2C` [GPN279, 1,3-dimethyl-7-(3-methylbut-2-enyl)-1H-purine-2,6(3H, 7H)-dione], the inhibition at 10 µM in assay [1] was determined as 81.4%.
For the compound `O=C(OCC(O)CO)c1ccccc1O` (centres unmarked) [GPN136, 2,3-dihydroxypropyl 2-hydroxybenzoate], in assay [2], the IC50 is roughly 100 nM.

These data come from PMC4595804, “A strategy to discover decoy chemokine ligands with an anti-inflammatory activity” (Scientific Reports, 2015).
